Test [1] deals with T1, Recombinant Tdp1 (Homo sapiens (Human), UniProt Q9NUW8). The experiment in a line: AlphaScreen Tdp1 assay (qHTS, FITC/biotin phosphotyrosine DNA substrate). The test is classed as biochemical. The method, then: Tween-20, KCl, fluorescein isothiocyanate (FITC), and PBS were procured from Sigma-Aldrich. DMSO certified ACS grade was obtained from Fisher. The AlphaScreen FITC/streptavidin detection kit was from PerkinElmer Life and Analytical Sciences (Waltham, Mass.). Assay buffer consisted of PBS, pH 7.4, 80 mM KCl and 0.05% Tween-20. Recombinant Tdp1 was expressed and purified as described elsewhere (Antony et al., Nucleic Acids Research 35:4474-4484 (2007). The Sigma-Aldrich LOPAC^1280 library of 1280 known bioactives was received as DMSO solutions at initial concentration of 10 mM and plated as described elsewhere (Inglese et al., Proc. Natl. Acad. Sci. USA 103:11473-11478 (2006); Yasgar et al., J. Assoc. Lab. Automat. 13:78-89 (2008)).
T1 sequence (Q9NUW8 whole entry): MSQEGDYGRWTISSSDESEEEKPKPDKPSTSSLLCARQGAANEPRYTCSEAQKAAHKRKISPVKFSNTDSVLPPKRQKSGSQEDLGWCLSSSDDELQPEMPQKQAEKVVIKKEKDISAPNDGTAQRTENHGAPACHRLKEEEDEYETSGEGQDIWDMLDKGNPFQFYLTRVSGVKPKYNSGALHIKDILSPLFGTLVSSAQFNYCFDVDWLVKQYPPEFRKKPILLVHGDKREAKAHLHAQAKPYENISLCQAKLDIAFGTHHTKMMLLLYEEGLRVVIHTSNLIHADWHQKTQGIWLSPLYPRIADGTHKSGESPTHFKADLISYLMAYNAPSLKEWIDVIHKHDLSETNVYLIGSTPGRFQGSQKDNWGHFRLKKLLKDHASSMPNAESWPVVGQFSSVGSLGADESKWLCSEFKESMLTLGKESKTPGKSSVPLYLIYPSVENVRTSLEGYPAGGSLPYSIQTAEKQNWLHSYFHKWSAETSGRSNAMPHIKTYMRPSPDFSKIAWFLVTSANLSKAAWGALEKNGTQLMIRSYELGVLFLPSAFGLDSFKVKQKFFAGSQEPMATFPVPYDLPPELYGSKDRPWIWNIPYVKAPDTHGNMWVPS
The biotinylated phosphotyrosine deoxyoligonucleotide (5′ biotin-[…]-pY) was synthesized, purified, and QC-tested by Midland Certified Reagent Company, Midland, Tex. Standard overnight 4° C. FITC coupling was performed in-house. The FITC-labeled substrate was purified on Biospin-6 desalting columns (Bio-Rad, Hercules, Calif.) and its concentration was determined by UV-vis spectrophotometry.
Assay reaction mixtures and substrate/beads titrations were initially performed at 20 μl final volume in 384-well plates. For the subsequent 1,536-well based experiments, Flying Reagent Dispenser (FRD, Aurora Discovery, presently Beckman-Coulter) was used to dispense reagents into the assay plates, while a pintool was used to deliver DMSO solutions of the test inhibitors. Plates were read on Envision plate reader (PerkinElmer) equipped with AlphaScreen optical detection module. For testing the effect of enzyme reaction conditions on the IC50 values for select inhibitors, the respective compounds were prepared as 24-point twofold intra-plate dilution series and assayed as described.
Three μl of reagents (buffer in columns 3 and 4 as negative control and 1.33 nM Tdp1 in columns 1, 2, 5-48) were dispensed into 1,536-well black solid bottom plate. Compounds (final concentrations in the range of 0.7 nM to 57 μM) were transferred via Kalypsys pintool equipped with 1,536-pin array. The plate was incubated for 15 min at room temperature, and then 1 μl of substrate (15 nM final concentration) was added to start the reaction. After 5 min incubation at room temperature, 1 μl of bead mix (15 μg/mL final concentration) was added and the plate was further incubated for 10 min at room temperature prior to signal measurement. Substrate and beads were prepared and kept in amber bottles to prevent photo-degradation. Library plates were screened starting from the lowest and proceeding to the highest concentration. Vehicle-only plates, with DMSO being pin-transferred to the entire column 5-48 compound area, were included at the beginning and the end of the screen in order to record any systematic shifts in assay signal. Screening data were corrected, normalized, and curve-fitted by using in-house developed algorithms.
To configure an assay for Tdp1, we utilized the ability of the AlphaScreen system to report on the integrity of the phosphotyrosine-based substrate, viewed here as a multi-site analyte. The AlphaScreen signal is a direct consequence of the close proximity of donor and acceptor beads, which is achieved by the formation of a ternary donor-analyte-acceptor recognition complex. To realize the AlphaScreen assay using the consensus DNA-pY substrate for Tdp1, 5′[…]pY, recognition elements for both bead types had to be introduced. To this end, we coupled a fluorescein isothiocyanate (FITC) to the amino group of tyrosine in a phosphotyrosine-containing single stranded DNA substrate bearing a biotin at its 5′ end. […] Conversely, if the Tdp1 catalysis was inhibited, an elevated signal would be observed for that sample.
On the technique in general: Alpha assays give light when donor and acceptor beads are brought close together.

Test [2] deals with T1, Recombinant Tdp1. The experiment in a line: Secondary radiolabel gel-based Tdp1 assay (N14Y substrate). Format: biochemical. As for the experimental part: One nanomolar of 5′-^32P-labeled substrate (N14Y; 5′-[…]-Tyrosine-3′) was incubated with 0.1 nM recombinant Tdp1 in the absence or presence of inhibitor for 20 min at 25° C. in a reaction buffer containing 50 mM Tris-HCl (pH 7.5), 80 mM KCl, 2 mM EDTA, and 40 μg/ml BSA. Reactions were terminated by the addition of one volume of gel loading buffer (96% (v/v) formamide, 10 mM EDTA, 1% (w/v) xylene cyanol and 1% (w/v) bromphenol blue). The samples were subsequently heated to 95° C. for 5 min and subjected to 20% denaturing PAGE. When the Tdp1 mutant H493R (100 nM) was employed, the reactions were stopped with one volume of SDS loading dye and analyzed by 4-20% SDS-PAGE. All gels were dried and exposed on a PhosphorImager screen. Imaging and quantification were done using a Typhoon 8600 and ImageQuant software (GE Healthcare, Piscataway, N.J.).
Activity of certain compounds was also tested in secondary radiolabel gel-based assays (Inamdar et al., J. Biol. Chem. 277:27162-27168 (2002); Davies et al., J. Mol. Biol. 324:917-932 (2002)).

Where [3] appears, read: 1,536-well AlphaScreen qHTS, N/D = not detectable, read-out: Activity (qHTS) IC50.
The mark [4] stands for this setting: 1 nM N14Y, 0.1 nM Tdp1, 20 min at 25° C., N/D = not detectable, read-out: Activity (Gel).

For `CN(C)[C@H]1C(O)=C(C(=O)NCN2CCCC2)C(=O)[C@]2(O)C(O)=C3C(=O)c4c(O)cccc4[C@](C)(O)[C@H]3C[C@H]12`, the IC50 was 0.2 µM on Recombinant Tdp1 [1] (setting [3]) and < 0.1 µM at Recombinant Tdp1 [2] (1 nM N14Y, 0.1 nM Tdp1, value printed with question mark, read-out: Activity (Gel)). As for `CN(C)C1C(=O)C(C(N)=O)C(=O)C2(O)C(=O)C3C(=O)c4c(O)cccc4C(C)(O)C3C(O)C12` (centres unmarked), the values for the IC50 at Recombinant Tdp1 [1] and on Recombinant Tdp1 [2] were 0.2 µM and 5 µM, respectively. `CN(C)C1C(O)=C(C(N)=O)C(=O)[C@@]2(O)C(O)=C3C(=O)c4c(O)cccc4[C@](C)(O)C3C(O)C12` (some centres unmarked): the IC50 at Recombinant Tdp1 [1] (setting [3]) stood at 0.63 µM; at Recombinant Tdp1 [2] (setting [4]), 8 µM. On the same counts, the results for `CN(C)[C@H]1C(O)=C(C(=O)NCN2CCCC2)C(=O)[C@]2(O)C(O)=C3C(=O)c4c(O)cccc4[C@@](C)(O)[C@H]3C[C@@H]12` are 1.26 µM and 30.2 µM. On the same counts, the results for `CN(C)[C@@H]1C(O)=C(C(N)=O)C(=O)[C@]2(O)C(O)=C3C(=O)c4c(O)ccc(Cl)c4[C@](C)(O)[C@H]3C[C@@H]12` are 2.82 µM and 13.2 µM. The like results for `CN(C)C1C(O)=C(C(N)=O)C(=O)[C@]2(O)C(O)=C3C(=O)c4c(O)cccc4[C@](C)(O)C3C(O)C12` (some centres unmarked) were, in that order, 3.16 µM and 10 µM. For the compound `CN(C)C1C(O)=C(C(N)=O)C(=O)[C@@]2(O)C(O)=C3C(=O)c4c(O)ccc(Cl)c4[C@](C)(O)C3CC12` (some centres unmarked), the values for the IC50 at Recombinant Tdp1 [1] (setting [3]) and at Recombinant Tdp1 [2] (setting [4]) were 3.16 µM and 20 µM, respectively. On the same counts, the results for `CN(C)C1C(O)=C(C(N)=O)C(=O)[C@@]2(O)C(O)=C3C(=O)c4c(O)cccc4[C@@](C)(O)C3[C@H](O)C12` (some centres unmarked) are 4.47 µM and 3 µM. On the same counts, the results for `CN(C)[C@H]1C(O)=C(C(N)=O)C(=O)[C@]2(O)C(O)=C3C(=O)c4c(O)cccc4[C@@](C)(O)[C@H]3C[C@@H]12` are 14.1 µM and 10 µM. For `CN(C)C1C(O)=C(C(N)=O)C(=O)[C@@]2(O)C(O)=C3C(=O)c4c(O)cccc4[C@@](C)(O)C3C[C@@H]12` (some centres unmarked), at Recombinant Tdp1 [1] (setting [3]), the IC50 is 10 µM. On the same count and under the same terms, the result for `CN(C)[C@H]1C(O)=C(C(=O)NCN[C@@H](CCCCN)C(=O)O)C(=O)[C@]2(O)C(O)=C3C(=O)c4c(O)cccc4[C@@](C)(O)[C@H]3C[C@@H]12` reads 12.6 µM. As to `CN(C)C1C(O)=C(C(N)=O)C(=O)[C@@]2(O)C(O)=C3C(=O)c4c(O)cccc4[C@@](C)(O)C3CC12.Cl` (some centres unmarked), at Recombinant Tdp1 [1] (1,536-well AlphaScreen qHTS, N/D = not detectable), the “Activity (qHTS) IC50” value was “IC50: N/D”. Regarding `CN(C)[C@@H]1C(O)=C(C(=O)NCN2CCCC2)C(=O)[C@@]2(O)C(O)=C3C(=O)c4c(O)cccc4[C@@](C)(O)C3CC12` (some centres unmarked), the IC50 on Recombinant Tdp1 [1] (setting [3]) came to 0.71 µM. In the case of `CN(C)[C@@H]1C(O)=C(C(N)=O)C(=O)[C@@]2(O)C(O)=C3C(=O)c4c(O)cccc4[C@@](C)(O)[C@H]3[C@H](O)[C@@H]12`, the IC50 on Recombinant Tdp1 [1] (setting [3]) stood at 0.5 µM. Same read-out and setting: the figure for `CN(C)[C@@H]1C(O)=C(C(N)=O)C(=O)[C@]2(O)C(O)=C3C(=O)c4c(O)cccc4[C@@](C)(O)[C@H]3[C@H](O)[C@@H]12` is 1.59 µM. In the case of `CN(C)[C@@H]1C(=O)C(C(N)=O)=C(O)[C@@]2(O)C(O)=C3C(=O)c4c(O)cccc4[C@@](C)(O)[C@H]3[C@H](O)[C@@H]12`, the IC50 at Recombinant Tdp1 [1] was found to be 0.4 µM. With `[O]=[V]([O-])([O-])[O-]` [vanadate, reference compound], the “Tdp1 inhibition potency range” value on Recombinant Tdp1 [1] (AlphaScreen assay set-up in 384-well plates) is “sub-millimolar”.
